Where two headings read alike, the source gives them in different places.
Experiments:
[1] = tested on: HBsAg; experiment: HBsAg assay (CLIA on supernatant of HepG2.2.15 cells); assay type: cell-based, HBV; conditions: HBsAg secretion reduced by 50% compared to the no drug control
Experimental: (§1) HepG2.2.15 cells (Acs et al. Proc Natl Acad Sci USA, 84, (1987), 4641-4), a constitutively HBV-expressing cell line were cultured in DMEM+Glutamax-I medium (Invitrogen, Carlsbad, Calif., USA), supplemented with 10% fetal bovine serum (Invitrogen) and G418 (Invitrogen) at a final concentration of 200 mg/L and maintained in 5% CO2 at 37° C.
HepG2.2.15 cells were seeded in duplicate into white, 96-well plates at 1.5×10^4 cells/well. The cells were treated with a three-fold serial dilution series of the compounds in DMSO. The final DMSO concentration in all wells was 1% and DMSO was used as no drug control.
The HBsAg chemiluminescence immunoassay (CLIA) kit (Autobio Diagnostics Co., Zhengzhou, China, Catalog number: CL0310-2) was used to measure the levels of secreted HBV antigens semi-quantitatively. For the detection 50 μL/well culture supernatant was used and HBsAg was quantified using HBsAg chemiluminescence immunoassay (CLIA) kit (Autobio Diagnostics Co., Zhengzhou, China, Catalog number: CL0310-2), 50 μL of the supernatant was transferred to the CLIA assay plate and 50 μL of enzyme conjugate reagent was added into each well. The plates were sealed and gently agitated for 1 hour at room temperature. The supernatant-enzyme-mixture was discarded and wells were washed 6 times with 300 μL of PBS. The residual liquid was removed by plating the CLIA plate right side down on absorbent tissue paper. 25 μL of substrates A and B were added to each well. Luminance was measured using a luminometer (Mithras LB 940 Multimode Microplate Reader) after 10 minutes incubation. Dose-response curves were generated and the IC50 value was extrapolated by using the E-WorkBook Suite (ID Business Solutions Ltd., Guildford, UK). The IC50 was defined as the compound concentration at which HBsAg secretion was reduced by 50% compared to the no drug control.
The compounds according to formula I were tested for their capacity to inhibit HBsAg as described herein.

[2] = tested on: HBV DNA; experiment: HBV DNA assay (real-time qPCR of extracellular HBV DNA, HepG2.2.15 cells); assay type: cell-based; conditions: Hepatitis B virus, 144 h, extracellular HBV DNA in supernatant, six days after treatment, read-out: IC50, anti HBV DNA production activity
Experimental: as §1
The assay employs real-time qPCR (TaqMan) to directly measure extracellular HBV DNA copy number in the cell supernatant. HepG2.2.15 cells were plated in 96-well microtiter plates before treatment with complete medium (DMEM, Glutamax, 10% FBS, 1% Penicillin/Streptomycin, 250 μg/mL Genetycin, final DMSO concentration is 1%). Only the interior wells were utilized to reduce “edge effects” observed during cell culture, the exterior wells were filled with complete medium to help minimize sample evaporation. […]

[3] = Hepatitis B virus, HepG2.2.15, read-out: IC50 in HBsAg assay, HepG2.2.15 cells
[4] = read-out: IC50 in HBsAg assay, HepG2.2.15 cells

| Compound | IC50 [1, 3] [nM] | further results |
| --- | --- | --- |
| c1cnc(-c2ncc(N3CCc4ccccc4C3)cn2)nc1 [Example 1, 2-(2-Pyrimidin-2-ylpyrimidin-5-yl)-3,4-dihydro-1H-isoquinoline] | 3170 | – |
| Fc1ccc2c(c1)CN(c1cnc(-c3ncccn3)nc1)CC2 [Example 2, 7-Fluoro-2-(2-pyrimidin-2-ylpyrimidin-5-yl)-3,4-dihydro-1H-isoquinoline] | – | IC50 [1, 4]: 22500 nM |
| COc1cc2c(cc1OC)CN(c1cnc(-c3ncccn3)nc1)CC2 [Example 3, 6,7-Dimethoxy-2-(2-pyrimidin-2-ylpyrimidin-5-yl)-3,4-dihydro-1H-isoquinoline] | 2320 | – |
| COc1ccc2c(c1)CCN(c1cnc(-c3ncccn3)nc1)C2 [Example 4, 6-Methoxy-2-(2-pyrimidin-2-ylpyrimidin-5-yl)-3,4-dihydro-1H-isoquinoline] | 5200 | – |
| COc1cc(F)c2c(c1)CN(c1cnc(-c3ncccn3)nc1)CC2 [Example 5, 5-Fluoro-7-methoxy-2-(2-pyrimidin-2-ylpyrimidin-5-yl)-3,4-dihydro-1H-isoquinoline] | 355 | – |
| COc1cc(F)cc2c1CCN(c1cnc(-c3ncccn3)nc1)C2 [Example 6, 7-Fluoro-5-methoxy-2-(2-pyrimidin-2-ylpyrimidin-5-yl)-3,4-dihydro-1H-isoquinoline] | 454 | – |
| COc1cc(F)c2c(c1)C(C)N(c1cnc(-c3ncccn3)nc1)CC2 (stereo not shown) [Example 7, 5-Fluoro-7-methoxy-1-methyl-2-(2-pyrimidin-2-ylpyrimidin-5-yl)-3,4-dihydro-1H-isoquinoline] | 315 | – |
| COc1cc(F)c2c(c1)CN(c1cnc(-c3ncccn3)cn1)CC2 [Example 8, 5-Fluoro-7-methoxy-2-(5-pyrimidin-2-ylpyrazin-2-yl)-3,4-dihydro-1H-isoquinoline] | 445 | IC50 [2]: 292 nM |
| Clc1ccc2c(c1)CCN(c1cnc(-c3ncccn3)nc1)C2 [Example 9, 6-Chloro-2-(2-pyrimidin-2-ylpyrimidin-5-yl)-3,4-dihydro-1H-isoquinoline] | 2520 | – |
| COc1cc2c(cc1OC)CN(c1ccc(-c3ccccn3)nc1)CC2 [Example 10, 6,7-Dimethoxy-2-[6-(2-pyridyl)-3-pyridyl]-3,4-dihydro-1H-isoquinoline] | 3120 | – |
| Fc1ccc2c(c1)CN(c1cnc(-c3ncccn3)nc1)CC2 [Example 11, 7-Fluoro-2-(2-pyrimidin-2-ylpyrimidin-5-yl)-3,4-dihydro-1H-isoquinoline] | – | IC50 [1, 4]: 3890 nM |
| COc1ccc2c(n1)CN(c1cnc(-c3ncccn3)nc1)CC2 [Example 12, 2-Methoxy-7-(2-pyrimidin-2-ylpyrimidin-5-yl)-6,8-dihydro-5H-1,7-naphthyridine] | 5770 | – |
| COc1cc2c(cn1)CCN(c1cnc(-c3ncccn3)nc1)C2 [Example 13, 7-Methoxy-2-(2-pyrimidin-2-ylpyrimidin-5-yl)-3,4-dihydro-1H-2,6-naphthyridine] | 3700 | – |
| COc1ccc2c(c1)CN(c1cnc(-c3ncccn3)nc1)CC2 [Example 14, 7-Methoxy-2-(2-pyrimidin-2-ylpyrimidin-5-yl)-3,4-dihydro-1H-isoquinoline] | 990 | – |
| c1cnc(-c2ncc(N3CCc4ccc(C5CC5)cc4C3)cn2)nc1 [Example 15, 7-Cyclopropyl-2-(2-pyrimidin-2-ylpyrimidin-5-yl)-3,4-dihydro-1H-isoquinoline] | 1690 | – |
| CN(C)c1ccc2c(c1)CN(c1cnc(-c3ncccn3)nc1)CC2 [Example 16, N,N-Dimethyl-2-(2-pyrimidin-2-ylpyrimidin-5-yl)-3,4-dihydro-1H-isoquinolin-7-amine] | 406 | – |
| Cc1ccc2c(c1)CN(c1cnc(-c3ncccn3)nc1)CC2 [Example 17, 7-Methyl-2-(2-pyrimidin-2-ylpyrimidin-5-yl)-3,4-dihydro-1H-isoquinoline] | 2010 | – |

| Compound | IC50 [1, 3] [nM] | further results |
| --- | --- | --- |
| CNc1ccc2c(c1)CN(c1cnc(-c3ncccn3)nc1)CC2 [Example 18, N-Methyl-2-(2-pyrimidin-2-ylpyrimidin-5-yl)-3,4-dihydro-1H-isoquinolin-7-amine] | 4640 | – |
| Fc1cc(OCC(F)F)cc2c1CCN(c1cnc(-c3ncccn3)nc1)C2 [Example 19, 7-(2,2-Difluoroethoxy)-5-fluoro-2-(2-pyrimidin-2-ylpyrimidin-5-yl)-3,4-dihydro-1H-isoquinoline] | 255 | – |
| N#Cc1ccc2c(c1)CN(c1cnc(-c3ncccn3)nc1)CC2 [Example 20, 2-(2-Pyrimidin-2-ylpyrimidin-5-yl)-3,4-dihydro-1H-isoquinoline-7-carbonitrile] | 8640 | – |
| Fc1cc(OCC2CC2)cc2c1CCN(c1cnc(-c3ncccn3)nc1)C2 [Example 21, 7-(Cyclopropylmethoxy)-5-fluoro-2-(2-pyrimidin-2-ylpyrimidin-5-yl)-3,4-dihydro-1H-isoquinoline] | 244 | – |
| Clc1ccc2c(c1)CN(c1cnc(-c3ncccn3)nc1)CC2 [Example 22, 7-Chloro-2-(2-pyrimidin-2-ylpyrimidin-5-yl)-3,4-dihydro-1H-isoquinoline] | 2040 | – |
| CN(C)c1ccc2c(c1)CCN(c1cnc(-c3ncccn3)nc1)C2 [Example 23, N,N-Dimethyl-2-(2-pyrimidin-2-ylpyrimidin-5-yl)-3,4-dihydro-1H-isoquinolin-6-amine] | 2220 | – |
| c1cnc(-c2ncc(N3CCc4cc(C5CC5)ccc4C3)cn2)nc1 [Example 24, 6-Cyclopropyl-2-(2-pyrimidin-2-ylpyrimidin-5-yl)-3,4-dihydro-1H-isoquinoline] | 1380 | – |
| N#Cc1cccc2c1CCN(c1cnc(-c3ncccn3)nc1)C2 [Example 25, 2-(2-Pyrimidin-2-ylpyrimidin-5-yl)-3,4-dihydro-1H-isoquinoline-5-carbonitrile] | 1190 | – |
| COC1CN(c2ccc3c(c2)CN(c2cnc(-c4ncccn4)nc2)CC3)C1 [Example 26, 7-(3-Methoxyazetidin-1-yl)-2-(2-pyrimidin-2-ylpyrimidin-5-yl)-3,4-dihydro-1H-isoquinoline] | 1410 | – |
| Fc1cccc2c1CCN(c1cnc(-c3ncccn3)nc1)C2 [Example 27, 5-Fluoro-2-(2-pyrimidin-2-ylpyrimidin-5-yl)-3,4-dihydro-1H-isoquinoline] | 3030 | – |
| NC(=O)COc1cc(F)c2c(c1)CN(c1cnc(-c3ncccn3)nc1)CC2 [Example 28, 2-[[5-Fluoro-2-(2-pyrimidin-2-ylpyrimidin-5-yl)-3,4-dihydro-1H-isoquinolin-7-yl]oxy]acetamide] | 8520 | – |
| c1cnc(-c2ncc(N3CCc4c(cccc4C4CC4)C3)cn2)nc1 [Example 29, 5-Cyclopropyl-2-(2-pyrimidin-2-ylpyrimidin-5-yl)-3,4-dihydro-1H-isoquinoline] | 6890 | – |
| CN(C)c1cccc2c1CCN(c1cnc(-c3ncccn3)nc1)C2 [Example 30, N,N-Dimethyl-2-(2-pyrimidin-2-ylpyrimidin-5-yl)-3,4-dihydro-1H-isoquinolin-5-amine] | 43300 | – |
| COc1cc(Cl)c2c(c1)CN(c1cnc(-c3ncccn3)nc1)CC2 [Example 31, 5-Chloro-7-methoxy-2-(2-pyrimidin-2-ylpyrimidin-5-yl)-3,4-dihydro-1H-isoquinoline] | 68 | – |
| COc1cc(Cl)cc2c1CCN(c1cnc(-c3ncccn3)nc1)C2 [Example 32, 7-Chloro-5-methoxy-2-(2-pyrimidin-2-ylpyrimidin-5-yl)-3,4-dihydro-1H-isoquinoline] | 251 | – |
| CCC1c2cc(OC)cc(F)c2CCN1c1cnc(-c2ncccn2)nc1 (stereo not shown) [Example 33, Ethyl-5-fluoro-7-methoxy-2-(2-pyrimidin-2-ylpyrimidin-5-yl)-3,4-dihydro-1H-isoquinoline] | 790 | – |

— patent US11124495B2, “Tetrahydroisoquinolines and terahydronaphthyridines for the treatment of hepatitis B virus infection” (Hoffmann-La Roche Inc., priority 2016, dated 2021)
